For assay [1], the target named is Carbonic anhydrase 1 (Homo sapiens, UniProt P00915).
Description: Inhibition of human recombinant carbonic anhydrase 1 by stopped-flow CO2 hydrase assay
In assay [2] the target is T1, Carbonic anhydrase (Helicobacter pylori (strain ATCC 700392 / 26695) (Campylobacterpylori), UniProt O24855).
T1 sequence (O24855 whole entry): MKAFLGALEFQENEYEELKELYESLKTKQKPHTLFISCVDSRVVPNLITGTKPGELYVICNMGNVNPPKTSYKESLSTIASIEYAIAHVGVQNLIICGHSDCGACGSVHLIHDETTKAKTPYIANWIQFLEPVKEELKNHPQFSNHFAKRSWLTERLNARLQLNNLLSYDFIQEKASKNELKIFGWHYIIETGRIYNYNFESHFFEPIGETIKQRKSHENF
Description: Inhibition of Helicobacter pylori recombinant carbonic anhydrase by stopped-flow CO2 hydrase assay

Carbonic anhydrase 1, sequence (P00915 whole entry): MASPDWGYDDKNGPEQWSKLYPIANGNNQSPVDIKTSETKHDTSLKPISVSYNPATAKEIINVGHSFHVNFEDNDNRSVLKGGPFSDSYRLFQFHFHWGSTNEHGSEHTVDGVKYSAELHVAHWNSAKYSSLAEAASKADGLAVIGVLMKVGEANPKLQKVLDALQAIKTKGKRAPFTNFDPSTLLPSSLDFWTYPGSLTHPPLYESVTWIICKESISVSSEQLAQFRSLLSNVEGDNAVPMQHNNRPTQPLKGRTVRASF

As usually defined, the Ki is the equilibrium dissociation constant of an inhibitor or competing ligand from its target. Turning to `CC(C)(C)c1ccc(C(=O)Nc2cccc(S(N)(=O)=O)c2)cc1`, the Ki worked out at 10.8 µM in assay [1] and 316 nM in assay [2].
Taken in the same sequence, the figures for `CC(C)(C)c1ccc(S(=O)(=O)Nc2ccc(S(N)(=O)=O)cc2)cc1` were 13 µM and 60 nM.
`CC(C)(C)c1ccc(S(=O)(=O)Nc2ccccc2S(N)(=O)=O)cc1`: the figures for the Ki in assay [1] and in assay [2] were 14.7 µM and 640 nM, respectively.
In the case of `CC(C)(C)c1ccc(S(=O)(=O)CCNc2ccc(S(N)(=O)=O)cc2)cc1`, the Ki in assay [1] worked out at 12 µM; in assay [2], 27 nM.
Taken in the same sequence, the figures for `CC(C)(C)c1ccc(C(=O)NCCc2ccc(S(N)(=O)=O)cc2)cc1` were 12.4 µM and 51 nM.
Taken in the same sequence, the figures for `CC(C)(C)c1ccc(C(=O)Nc2ccccc2S(N)(=O)=O)cc1` were 12.3 µM and 539 nM.
Take `CC(C)(C)c1ccc(S(=O)(=O)CNc2ccc(S(N)(=O)=O)cc2)cc1`: the Ki came to 12.1 µM in assay [1] and 31 nM in assay [2].
On the same counts, the results for `CC(C)(C)c1ccc(S(=O)(=O)Nc2cccc(S(N)(=O)=O)c2)cc1` are 9.62 µM and 318 nM.
For `CC(C)(C)c1ccc(S(=O)(=O)Nc2nnc(S(N)(=O)=O)s2)cc1`, the Ki in assay [1] stood at 0.338 µM; in assay [2] it was 12 nM.
As for `CC(C)(C)c1ccc(C(=O)Nc2nnc(S(N)(=O)=O)s2)cc1`, the Ki in assay [1] was 0.541 µM; in assay [2], 13 nM.
`Nc1ccc(S(=O)(=O)NCc2ccc(S(N)(=O)=O)cc2)cc1`: the Ki in assay [2] amounted to 131 nM.
In turn, `Nc1ccc(S(N)(=O)=O)cc1I` returned a Ki in assay [2] of 510 nM.
In assay [2], `Nc1ccc(S(=O)(=O)Nc2nnc(S(N)(=O)=O)s2)cc1` yielded a Ki of 268 nM.
On to `CC(C)(C)c1ccc(C(=O)NCc2ccc(S(N)(=O)=O)cc2)cc1`, for which the figures for the Ki in assay [1] and in assay [2] were 13.3 µM and 62 nM, respectively.
In the case of `CC(C)(C)c1ccc(C(=O)Nc2ccc(S(N)(=O)=O)cc2)cc1`, the Ki in assay [1] is 14.2 µM; in assay [2], 79 nM.
In assay [2], `Nc1nccc(Nc2ccc(S(N)(=O)=O)cc2)n1` yielded a Ki of 84 nM.
As to `Nc1ccc(S(N)(=O)=O)cc1Br`, the inhibitory constant (Ki) in assay [2] was found to be 452 nM.
`Cn1nc(S(N)(=O)=O)sc1=N` yielded an inhibition constant (Ki) in assay [2] of 549 nM.
`Nc1ccc(S(N)(=O)=O)cc1F` showed an inhibition constant Ki in assay [2] of 1230 nM.
Regarding `Nc1ccc(S(N)(=O)=O)cc1Cl`, the Ki in assay [2] was 378 nM.
Same read-out and setting: the figure for `Nc1ccc(S(=O)(=O)NCCc2ccc(S(N)(=O)=O)cc2)cc1` is 114 nM.
In the case of `NS(=O)(=O)c1ccc(S(=O)(=O)Nc2cccc3c(Cl)c[nH]c23)cc1`, affinity in assay [2] was put at a Ki of 413 nM.
Consider `CCN[C@H]1CN(CCCOC)S(=O)(=O)c2sc(S(N)(=O)=O)cc21` [BRINZOLAMIDE], for which, in assay [2], the Ki came to 210 nM.
Still for that read-out and setting: then `NS(=O)(=O)c1ccc(C(=O)O)cc1` [CARZENIDE], with 1050 nM; and `NCc1ccc(S(N)(=O)=O)cc1` [MAFENIDE], with 873 nM.
In assay [2], `Cc1ccc(S(N)(=O)=O)cc1` [P-TOLUENESULFONAMIDE] yielded an inhibition constant Ki of 450 nM.

The values are drawn from ChEMBL document CHEMBL1138198, “Carbonic anhydrase inhibitors: DNA cloning and inhibition studies of the alpha-carbonic anhydrase from Helicobacter pylori, a new target for developing sulfonamide and sulfamate gastric drugs” (J Med Chem, 2006).
